Results reported in the NIST ThermoML archive (doi:10.1021/je900903w).

Assay: mn = molality of the nth substance listed, in mol/kg
Conditions: 101 kPa, Liquid; for molar conductivity: Alternating current cell with electrodes

O=CO [formic acid] + O
Conditions	mass density, 298.15 K [kg/m3]	molar conductivity, 278.15 K [S·m2/mol]	molar conductivity, 283.15 K [S·m2/mol]	molar conductivity, 288.15 K [S·m2/mol]	molar conductivity, 293.15 K [S·m2/mol]	molar conductivity, 298.15 K [S·m2/mol]	molar conductivity, 303.15 K [S·m2/mol]	molar conductivity, 308.15 K [S·m2/mol]	molar conductivity, 313.15 K [S·m2/mol]
m1 = 0.0002709	–	0.0149	0.0165	0.018	0.01947	0.02084	0.02214	0.0233	0.0242
m1 = 0.0005657	–	0.0113	0.0125	0.0138	0.0149	0.0161	0.0171	0.018	0.0189
m1 = 0.0008298	–	0.00971	0.0108	0.0119	0.0129	0.0139	0.0149	0.0157	0.0164
m1 = 0.001094	–	0.00867	0.00965	0.0106	0.0115	0.0124	0.0133	0.0141	0.0147
m1 = 0.001442	–	0.00773	0.00862	0.00948	0.0103	0.0111	0.0119	0.0126	0.0132
m1 = 0.001825	–	0.0069	0.00768	0.00845	0.0092	0.00991	0.0106	0.0112	0.0117
m1 = 0.002222	–	0.00636	0.00709	0.00781	0.0085	0.00917	0.00981	0.0104	0.0109
m1 = 0.002648	–	0.00593	0.00661	0.00727	0.0079	0.00851	0.00907	0.00959	0.0101
m1 = 0.003208	–	0.00548	0.00611	0.00673	0.00733	0.00791	0.00845	0.00894	0.00939
m1 = 0.003957	–	0.00505	0.00563	0.0062	0.00675	0.00729	0.00779	0.00824	0.00866
m1 = 0.004898	997.113	0.00463	0.00517	0.0057	0.00621	0.0067	0.00717	0.0076	0.00799
m1 = 0.1291	998.53	–	–	–	–	–	–	–	–

O=C[O-].[K+] [potassium formate] + O
Conditions	mass density, 298.15 K [kg/m3]	molar conductivity, 278.15 K [S·m2/mol]	molar conductivity, 283.15 K [S·m2/mol]	molar conductivity, 288.15 K [S·m2/mol]	molar conductivity, 293.15 K [S·m2/mol]	molar conductivity, 298.15 K [S·m2/mol]	molar conductivity, 303.15 K [S·m2/mol]	molar conductivity, 308.15 K [S·m2/mol]	molar conductivity, 313.15 K [S·m2/mol]
m1 = 0.0003498	–	0.007906	0.009019	0.01018	0.01138	0.0126	0.01387	0.01516	0.01649
m1 = 0.0006599	–	0.007826	0.008931	0.01008	0.01128	0.01251	0.01377	0.01502	0.01632
m1 = 0.001026	–	0.007789	0.008888	0.01003	0.01121	0.01245	0.01371	0.015	0.01628
m1 = 0.001412	–	0.007752	0.008844	0.009984	0.01117	0.01239	0.01365	0.01494	0.01622
m1 = 0.001766	–	0.007701	0.008787	0.009919	0.0111	0.01231	0.01356	0.01485	0.01614
m1 = 0.002217	–	0.007674	0.008755	0.009886	0.01106	0.01226	0.01351	0.0148	0.01608
m1 = 0.002823	–	0.007653	0.008729	0.009852	0.01102	0.01223	0.01348	0.01476	0.01606
m1 = 0.003432	–	0.007632	0.008706	0.009826	0.01099	0.0122	0.01344	0.01472	0.01601
m1 = 0.00406	–	0.007611	0.008682	0.0098	0.01097	0.01217	0.01341	0.01468	0.01596
m1 = 0.004815	–	0.007596	0.008665	0.00978	0.01094	0.01214	0.01338	0.01465	0.01593
m1 = 0.005831	997.346	0.007573	0.008637	0.009748	0.01091	0.0121	0.01333	0.0146	0.01587
m1 = 0.1219	1002.91	–	–	–	–	–	–	–	–

O=C[O-].[Na+] [sodium methanoate] + O
Conditions	mass density, 298.15 K [kg/m3]	molar conductivity, 278.15 K [S·m2/mol]	molar conductivity, 283.15 K [S·m2/mol]	molar conductivity, 288.15 K [S·m2/mol]	molar conductivity, 293.15 K [S·m2/mol]	molar conductivity, 298.15 K [S·m2/mol]	molar conductivity, 303.15 K [S·m2/mol]	molar conductivity, 308.15 K [S·m2/mol]	molar conductivity, 313.15 K [S·m2/mol]
m1 = 0.0002873	–	0.00626	0.007191	0.008167	0.009185	0.01025	0.01134	0.01247	0.01358
m1 = 0.0003841	–	0.006215	0.007142	0.00813	0.009157	0.01022	0.01133	0.01246	0.01356
m1 = 0.0005247	–	0.006187	0.007111	0.008093	0.009118	0.01018	0.01128	0.01243	0.01351
m1 = 0.0005682	–	0.006178	0.007106	0.008083	0.009103	0.01017	0.01126	0.01238	0.01348
m1 = 0.0006608	–	0.006158	0.007081	0.008058	0.009078	0.01014	0.01124	0.01237	0.01347
m1 = 0.0008201	–	0.006134	0.007053	0.008027	0.009042	0.0101	0.0112	0.01234	0.01345
m1 = 0.0008629	–	0.006107	0.007049	0.008019	0.009031	0.01009	0.01118	0.01231	0.01344
m1 = 0.0009581	–	0.006095	0.007021	0.007988	0.009	0.01005	0.01115	0.01228	0.01341
m1 = 0.001119	–	0.006088	0.007002	0.007965	0.008975	0.01002	0.01111	0.01224	0.0134
m1 = 0.001188	–	0.006075	0.007	0.007964	0.008973	0.01002	0.01111	0.01224	0.01338
m1 = 0.001257	–	0.006054	0.006986	0.007948	0.008957	0.01001	0.0111	0.01223	0.01337
m1 = 0.001548	–	0.006043	0.006974	0.007934	0.008938	0.009988	0.01107	0.01219	0.01332
m1 = 0.001921	–	0.006045	0.006953	0.007912	0.008914	0.009962	0.01105	0.01216	0.01327
m1 = 0.002391	–	0.006033	0.006939	0.007896	0.008898	0.009943	0.01103	0.01213	0.01325
m1 = 0.003024	–	0.006025	0.006923	0.007876	0.008874	0.009917	0.011	0.0121	0.0132
m1 = 0.003744	–	0.006001	0.006901	0.007852	0.008827	0.009883	0.01096	0.01205	0.01315
m1 = 0.004567	–	0.00598	0.006877	0.007823	0.008811	0.009845	0.01092	0.01202	0.01313
m1 = 0.005591	997.307	0.005949	0.006841	0.007783	0.008767	0.009794	0.01086	0.01196	0.01306
m1 = 0.1222	1002.23	–	–	–	–	–	–	–	–
